Data on 17 compounds can be found in US20240059703A1 (AMGEN INC., priority 2021, published 2024).

As a reminder, the IC50 is the point on the concentration scale where inhibition reaches its midpoint.

In test [1] the test system is MIA PaCa-2 (human pancreatic carcinoma) cells. Put plainly: Cell Viability Assay (CellTiter-Glo), MIA PaCa-2. It is filed as cell-based. The conditions noted are these: Homo sapiens, MIA PaCa-2, 72 h. The protocol:
Serially-diluted compound or DMSO was added to the cells, and plates were incubated at 37° C., 5% CO2 for 72 h. Cell viability was measured using a CellTiter-Glo® Luminescent Cell Viability Assay kit (Promega) according to the manufacturer's protocol. The luminescence signal of treated samples was normalized to DMSO control, and data were analyzed using a 4-parameter logistic model to calculate IC50 values.
On the technique in general: ATP-based viability assays read luminescence as a measure of living cells.

The test system of test [2] is A549 (human lung carcinoma) cells. Put plainly: Cell Viability Assay (CellTiter-Glo), A549. The class given is cell-based. The settings on record: Homo sapiens, A549, 72 h. The method in brief: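 Luminescent ATP read-out (CellTiter-Glo) after 72 h compound treatment of cells seeded overnight at 1.67E+04 cells/mL in RPMI 1640, 10% FBS; signal relative to DMSO, IC50 by 4-parameter logistic model.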

Test [3] has as its target KRAS G12C (Homo sapiens (Human), UniProt P01116, C118A/G12C). Put plainly: 2 h coupled exchange assay. The conditions noted are these: Avg 2 h Coupled exchange IC50, 2 h compound pre-incubation. The class given is biochemical. On the procedure:
The term “2 h coupled exchange assay” or “20 h coupled exchange assay” as used herein refers to the assay described in the Section entitled “BIOLOGICAL EVALUATION.”

KRAS G12C, sequence (P01116 other isoform, or with tags, fused parts or gaps G12C/C118A): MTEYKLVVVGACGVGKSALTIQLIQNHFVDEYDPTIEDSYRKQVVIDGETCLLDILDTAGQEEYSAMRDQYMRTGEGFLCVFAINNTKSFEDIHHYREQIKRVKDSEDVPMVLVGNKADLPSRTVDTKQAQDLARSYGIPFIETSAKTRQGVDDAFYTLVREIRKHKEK

In the case of `C=CC(=O)N1CC2(CCN(c3nc4c(c(-c5ccc(F)cc5F)c3C#N)CCN(C3CCCN(C)C3)C4)C2)C1` [Example 21-32, 4-(2,4-difluorophenyl)-7-((3R)-1-methyl-3-piperidinyl)-2-(2-(2-propenoyl)-2,6-diazaspiro[3.4]octan-6-yl)-5,6,7,8-tetrahydro-1,7-naphthyridine-3-carbonitrile|4-(2,4-difluorophenyl)-7-((3S)-1-methyl-3-piperidinyl)-2-(2-(2-propenoyl)-2,6-diazaspiro[3.4]octan-6-yl)-5,6,7,8-tetrahydro-1,7-naphthyridine-3-carbonitrile], the results for the IC50 in test [1], in test [2] and in test [3] were 1450 nM, 8220 nM and 355 nM, respectively.
As to `C=CC(=O)N1CC2(CCN(c3nc4c(c(-c5ccccc5F)c3C#N)CCN(C[C@@H]3CCC(=O)N3)C4)C2)C1` [Example 21-33, 4-(2-fluorophenyl)-7-(((2S)-5-oxo-2-pyrrolidinyl)methyl)-2-(2-(2-propenoyl)-2,6-diazaspiro[3.4]octan-6-yl)-5,6,7,8-tetrahydro-1,7-naphthyridine-3-carbonitrile], the IC50 in test [1] amounted to 5520 nM; in test [2], 16100 nM; in test [3], 957 nM.
On the same counts, the results for `C=CC(=O)N1CC2(CCN(c3nc4c(c(-c5ccccc5F)c3C#N)CCN(C(=O)[C@@H]3CCCN3C)C4)C2)C1` [Example 21-34, 4-(2-fluorophenyl)-7-(1-methyl-L-prolyl)-2-(2-(2-propenoyl)-2,6-diazaspiro[3.4]octan-6-yl)-5,6,7,8-tetrahydro-1,7-naphthyridine-3-carbonitrile] are 6290 nM, more than 25000 nM and 911 nM.
Taken in the same sequence, the figures for `C=CC(=O)N1CC2(CCN(c3nc4c(c(-c5cc(O)ccc5Cl)c3C#N)CCN(C3CCCN(C)C3)C4)C2)C1` [Example 21-36, 4-(2-chloro-5-hydroxyphenyl)-7-((3R)-1-methyl-3-piperidinyl)-2-(2-(2-propenoyl)-2,6-diazaspiro[3.4]octan-6-yl)-5,6,7,8-tetrahydro-1,7-naphthyridine-3-carbonitrile 4-(2-chloro-5-hydroxyphenyl)-7-((3S)-1-methyl-3-piperidinyl)-2-(2-(2-propenoyl)-2,6-diazaspiro[3.4]octan-6-yl)-5,6,7,8-tetrahydro-1,7-naphthyridine-3-carbonitrile] were 174 nM, more than 5000 nM and 167 nM.
Taken in the same sequence, the figures for `C=CC(=O)N1CC2(CCN(c3nc4c(c(-c5ccccc5F)c3C#N)CCN(C3CC3)C4)C2)C1` [Example 21-37, 7-cyclopropyl-4-(2-fluorophenyl)-2-(2-(2-propenoyl)-2,6-diazaspiro[3.4]octan-6-yl)-5,6,7,8-tetrahydro-1,7-naphthyridine-3-carbonitrile] were 461 nM, more than 5000 nM and 90 nM.
Regarding `C=CC(=O)N1CC2(CCN(c3nc4c(c(-c5ccccc5F)c3C#N)CCN(C(C)CN(C)C)C4)C2)C1` [Example 21-38, 7-((2R)-1-(dimethylamino)-2-propanyl)-4-(2-fluorophenyl)-2-(2-(2-propenoyl)-2,6-diazaspiro[3.4]octan-6-yl)-5,6,7,8-tetrahydro-1,7-naphthyridine-3-carbonitrile 7-((2S)-1-(dimethylamino)-2-propanyl)-4-(2-fluorophenyl)-2-(2-(2-propenoyl)-2,6-diazaspiro[3.4]octan-6-yl)-5,6,7,8-tetrahydro-1,7-naphthyridine-3-carbonitrile], the values for the IC50 in test [1], in test [2] and in test [3] were 196 nM, more than 5000 nM and 178 nM, respectively.
For `C=CC(=O)N1CC2(CCN(c3nc4c(c(-c5ccccc5F)c3C#N)CCN(CCCOC)C4)C2)C1` [Example 21-39, 4-(2-fluorophenyl)-7-(3-methoxypropyl)-2-(2-(2-propenoyl)-2,6-diazaspiro[3.4]octan-6-yl)-5,6,7,8-tetrahydro-1,7-naphthyridine-3-carbonitrile], the IC50 in test [1] came out at 7180 nM; in test [2], 17600 nM; in test [3], 1120 nM.
With `C=CC(=O)N1CC2(CCN(c3nc4c(c(-c5cc(O)ccc5Cl)n3)CCC(c3scnc3C)C4)C2)C1` [Example 22-4, 1-(6-((7R)-4-(2-chloro-5-hydroxyphenyl)-7-(4-methyl-1,3-thiazol-5-yl)-5,6,7,8-tetrahydro-2-quinazolinyl)-2,6-diazaspiro[3.4]octan-2-yl)-2-propen-1-one| 1-(6-((7S)-4-(2-chloro-5-hydroxyphenyl)-7-(4-methyl-1,3-thiazol-5-yl)-5,6,7,8-tetrahydro-2-quinazolinyl)-2,6-diazaspiro[3.4]octan-2-yl)-2-propen-1-one], the IC50 in test [1] is more than 5000 nM; in test [2], more than 5000 nM; in test [3] it was 222 nM.
`C=CC(=O)N1CC2(CCN(c3nc4c(c(-c5ncccc5C)c3C#N)CCC(c3scnc3C)=C4)C2)C1` [Example 23-1, 4-(3-Methyl-2-pyridinyl)-7-(4-methyl-1,3-thiazol-5-yl)-2-(2-(2-propenoyl)-2,6-diazaspiro[3.4]octan-6-yl)-5,6-dihydro-3-quinolinecarbonitrile]: the figures for the IC50 in test [1], in test [2] and in test [3] were 507 nM, more than 5000 nM and 178 nM, respectively.
Taken in the same sequence, the figures for `C=CC(=O)N1CC2(CCN(c3nc4c(c(-c5ccccc5C)c3C#N)CCC(c3scnc3C)C4)C2)C1` [Example 23-2, (7R)-4-(2-methylphenyl)-7-(4-methyl-1,3-thiazol-5-yl)-2-(2-(2-propenoyl)-2,6-diazaspiro[3.4]octan-6-yl)-5,6,7,8-tetrahydro-3-quinolinecarbonitrile (7S)-4-(2-methylphenyl)-7-(4-methyl-1,3-thiazol-5-yl)-2-(2-(2-propenoyl)-2,6-diazaspiro[3.4]octan-6-yl)-5,6,7,8-tetrahydro-3-quinolinecarbonitrile] were 164 nM, 12600 nM and 26 nM.
On the same counts, the results for `C=CC(=O)N1CC2(CCN(c3nc4c(c(-c5ccccc5F)c3C#N)CCC(c3scnc3C)=C4)C2)C1` [Example 23-7, 4-(2-fluorophenyl)-7-(4-methyl-1,3-thiazol-5-yl)-2-(2-(2-propenoyl)-2,6-diazaspiro[3.4]octan-6-yl)-5,6-dihydro-3-quinolinecarbonitrile] are 918 nM, 3690 nM and 72 nM.
Taken in the same sequence, the figures for `C=CC(=O)N1CC2(CCN(c3nc4c(c(-c5ccccc5F)c3C#N)COC(c3scnc3C)C4)C2)C1` [Example 23-8, (7R)-4-(2-fluorophenyl)-7-(4-methyl-1,3-thiazol-5-yl)-2-(2-(2-propenoyl)-2,6-diazaspiro[3.4]octan-6-yl)-7,8-dihydro-5H-pyrano[4,3-b]pyridine-3-carbonitrile(7S)-4-(2-fluorophenyl)-7-(4-methyl-1,3-thiazol-5-yl)-2-(2-(2-propenoyl)-2,6-diazaspiro[3.4]octan-6-yl)-7,8-dihydro-5H-pyrano[4,3-b]pyridine-3-carbonitrile] were 2240 nM, more than 5000 nM and 169 nM.
For the compound `C=CC(=O)N1CC2(CCN(c3nc4c(c(-c5ncccc5C)c3C#N)CC[C@](C)(c3scnc3C)C4)C2)C1` [Example 23-9, (7S)-7-methyl-4-(3-methyl-2-pyridinyl)-7-(4-methyl-1,3-thiazol-5-yl)-2-(2-(2-propenoyl)-2,6-diazaspiro[3.4]octan-6-yl)-5,6,7,8-tetrahydro-3-quinolinecarbonitrile], the IC50 in test [1] is 916 nM; in test [2] it was 16200 nM; in test [3], 531 nM.
Regarding `C=CC(=O)N1CC2(CCN(c3nc4c(c(-c5ncccc5C)c3C#N)CC[C@@](C)(c3scnc3C)C4)C2)C1` [Example 23-10, (7R)-7-methyl-4-(3-methyl-2-pyridinyl)-7-(4-methyl-1,3-thiazol-5-yl)-2-(2-(2-propenoyl)-2,6-diazaspiro[3.4]octan-6-yl)-5,6,7,8-tetrahydro-3-quinolinecarbonitrile], the half-maximal inhibitory concentration (IC50) in test [1] was 478 nM; in test [2], more than 5000 nM; in test [3], 200 nM.
Taken in the same sequence, the figures for `C=CC(=O)N1CC2(CCN(c3nc4c(c(-c5ccccc5C)c3C#N)CCC(c3scnc3C)=C4)C2)C1` [Example 23-11, 4-(2-methylphenyl)-7-(4-methyl-1,3-thiazol-5-yl)-2-(2-(2-propenoyl)-2,6-diazaspiro[3.4]octan-6-yl)-5,6-dihydro-3-quinolinecarbonitrile] were 637 nM, more than 5000 nM and 53 nM.
On the same counts, the results for `C=CC(=O)N1CC2(CCN(c3nc4c(c(-c5ccccc5F)c3C#N)CC[C@](C)(c3scnc3C)C4)C2)C1` [Example 23-12, (7S)-4-(2-fluorophenyl)-7-methyl-7-(4-methyl-1,3-thiazol-5-yl)-2-(2-(2-propenoyl)-2,6-diazaspiro[3.4]octan-6-yl)-5,6,7,8-tetrahydro-3-quinolinecarbonitrile] are 754 nM, 4070 nM and 108 nM.
On the same counts, the results for `C=CC(=O)N1CC2(CCN(c3nc4c(c(-c5ccccc5F)c3C#N)CC[C@@](C)(c3scnc3C)C4)C2)C1` [Example 23-13, (7R)-4-(2-fluorophenyl)-7-methyl-7-(4-methyl-1,3-thiazol-5-yl)-2-(2-(2-propenoyl)-2,6-diazaspiro[3.4]octan-6-yl)-5,6,7,8-tetrahydro-3-quinolinecarbonitrile] are 911 nM, more than 5000 nM and 39 nM.
